Assay [1] in a line: Antagonist activity at PAR1 in human platelets assessed as inhibition of thrombin-induced platelet aggregation.
Assay [2] in a line: Antagonist activity at PAR1 in human platelets assessed as inhibition of haTRAP-induced platelet aggregation.

Each structure is given as a SMILES string.

The IC50 is the midpoint of a concentration-inhibition curve. For `CCOC(=O)N[C@@H]1CC[C@@H]2[C@@H](C1)C[C@H]1C(=O)O[C@H](C)[C@H]1[C@H]2C=Cc1ccc(-c2cccc(F)c2)cn1` [Ethyl [(3aR,4aR,8aR,9aS)-9(S)-[(E)-2-[5-(3-fluorophenyl)-2-pyridinyl]ethenyl]dodecahydro-1(R)-methyl-3-oxonaphtho[2,3-c]furan-6(R)-yl]carbamate], the half-maximal inhibitory concentration (IC50) was 47 nM in assay [1] and 25 nM in assay [2].

The values above are taken from BindingDB's records for doi:10.1021/jm800180e (Schering-Plough Research Institute, 2008).
